Molecular target: T1, ACE (from rabbit lung) (Oryctolagus cuniculus, UniProt P12822)
T1 construct: ACE (from rabbit lung); purchased Sigma-Aldrich; host or cells: rabbit lung
T1 sequence (P12822 34-1310): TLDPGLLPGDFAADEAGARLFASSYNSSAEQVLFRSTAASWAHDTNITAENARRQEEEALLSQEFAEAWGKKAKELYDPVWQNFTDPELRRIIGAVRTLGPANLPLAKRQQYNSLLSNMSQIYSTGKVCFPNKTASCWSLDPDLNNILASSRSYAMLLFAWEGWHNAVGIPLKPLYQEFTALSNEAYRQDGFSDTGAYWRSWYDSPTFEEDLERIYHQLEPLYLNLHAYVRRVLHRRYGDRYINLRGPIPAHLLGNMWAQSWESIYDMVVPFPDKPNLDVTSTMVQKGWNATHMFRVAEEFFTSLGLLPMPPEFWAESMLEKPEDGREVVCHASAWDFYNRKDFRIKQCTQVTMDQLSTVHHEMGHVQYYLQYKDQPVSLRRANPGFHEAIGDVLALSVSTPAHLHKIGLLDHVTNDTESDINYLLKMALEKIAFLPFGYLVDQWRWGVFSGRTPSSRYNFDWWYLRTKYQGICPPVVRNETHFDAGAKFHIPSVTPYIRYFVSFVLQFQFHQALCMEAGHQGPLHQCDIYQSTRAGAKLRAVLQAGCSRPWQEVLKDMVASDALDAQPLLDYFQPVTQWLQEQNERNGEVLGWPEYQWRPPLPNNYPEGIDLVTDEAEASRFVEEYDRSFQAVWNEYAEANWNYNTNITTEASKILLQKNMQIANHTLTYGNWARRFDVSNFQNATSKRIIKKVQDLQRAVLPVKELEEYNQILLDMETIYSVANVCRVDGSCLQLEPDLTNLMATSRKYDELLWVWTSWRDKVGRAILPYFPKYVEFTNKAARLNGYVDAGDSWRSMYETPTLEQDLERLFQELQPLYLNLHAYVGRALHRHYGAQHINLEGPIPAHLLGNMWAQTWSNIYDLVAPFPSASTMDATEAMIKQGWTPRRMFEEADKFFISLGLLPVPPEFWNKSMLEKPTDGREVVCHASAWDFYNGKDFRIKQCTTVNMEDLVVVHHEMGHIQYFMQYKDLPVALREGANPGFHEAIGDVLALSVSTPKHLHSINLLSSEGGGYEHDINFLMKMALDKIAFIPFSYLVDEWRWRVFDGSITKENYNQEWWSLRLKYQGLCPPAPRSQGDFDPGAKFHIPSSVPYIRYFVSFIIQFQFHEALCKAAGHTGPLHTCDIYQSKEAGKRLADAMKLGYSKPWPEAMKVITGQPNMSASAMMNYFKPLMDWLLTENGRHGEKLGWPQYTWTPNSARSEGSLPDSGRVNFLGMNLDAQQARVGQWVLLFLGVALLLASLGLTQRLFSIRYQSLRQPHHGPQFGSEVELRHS
Test: on-chip ACE inhibition assay (FAPGG hydrolysis, absorbance decrease 340 nm)
Assay type: biochemical
Method: To enhance the performance of the on-chip assay, experimental parameters such as concentrations of enzymes and substrates, substrate reaction time, and incubation time of samples and enzymes were stepwise optimized.
The optimized protocol was first applied to assess the quality of 11 batches of QSYQ intermediates (Table 1). Enzyme inhibition (in percentages) was employed as an indicator of drug quality and calculated according to the following equations: thrombin inhibition (%) = [1 − (AQSYQ/Ablank)] × 100; ACE inhibition (%) = [1 − (ΔAQSYQ/ΔAblank)] × 100; where AQSYQ and Ablank were the absorbance of the test sample and the blank sample after the enzymatic reaction (the background value was subtracted), and ΔAQSYQ and ΔAblank were the absorbance decrease between 0 min and 30 min of the samples.
Thrombin (from human plasma), ACE (from rabbit lung), FAPGG and captopril were purchased from Sigma-Aldrich (St. Louis, USA). […] AEBSF-HCl was purchased from Selleckchem (Houston, USA). Trizma base (Tris) was obtained from Sangon Biotech (Shanghai, China) and dimethyl sulfoxide (DMSO) from J&K Scientific (Beijing, China). All other chemicals were purchased from Sinopharm Chemical (Shanghai, China) unless otherwise indicated. 0.2 M Phosphate buffer (PB, pH 6.5), and 50 mM Tris-HCl buffer (200 mM NaCl, pH 8.3) were prepared as assay buffers for thrombin and ACE, respectively.
MBs (10 mg/mL) were diluted 10 times in PB or Tris-HCl buffer, and 10 μL of the diluted MBs (1 mg/mL) were injected into one channel of the chip using a syringe infusion pump (Harvard Apparatus, USA) and retained by an external magnet. Then, 10 μL of thrombin or ACE solution was added and incubated with MBs for two hours at room temperature to form enzyme-MB complexes. The magnet was manually controlled to move MBs back and forth to enhance the ratio of reaction. Subsequently, MBs were washed twice in assay buffer and magnetically transferred to the other channel through the fluidic bridge, whose opening and closing was controlled by a pneumatic valve. Next, 10 μL of sample solutions of tested drug and 10 μL of enzymatic substrate were sequentially infused to the channel by the pump and incubated with the enzyme. When the enzymatic reaction was finished, the MBs were retained in the channel, and air was injected into the channel from the inlet using a syringe to push all the reacted solution to a 384-well plate. […] Moreover, after detection, the reaction channel was washed three times by assay buffer to remove unbound constituents. 20 μL of 80% aqueous methanol was then injected and incubated with MBs for one hour to dissociate the bound constituents. The resulting solutions of replicates were combined, evaporated by a centrifugal evaporator, reconstituted in 80% aqueous methanol, centrifuged at 10,000 rpm for 10 min, and analyzed by LC-MS for chemical identification.

**Q.** What does the source list for O=C(O)C(O)Cc1ccc(O)c(O)c1 (centres unmarked) [Danshensu]?
**A.** ACE inhibition (in words) (at tested concentrations): showed ACE inhibitions; inhibition rate (for ACE, maximum inhibition rate observed in the assay): 64.2%

— paper PMC5612938, “A multiple biomarker assay for quality assessment of botanical drugs using a versatile microfluidic chip” (Scientific Reports, 2017)
